Source: article PMC11481577, “Allosteric coupling of substrate binding and proton translocation in MmpL3 transporter from Mycobacterium tuberculosis” (mBio, 2024)

Tests used:
MmpL3ΔC D58A [1] = target: T1, MmpL3ΔC D58A (Mycobacterium tuberculosis, UniProt P9WJV5, D58A); format: biochemical
MmpL3ΔC H68A = MmpL3ΔC H68A (Mycobacterium tuberculosis, UniProt P9WJV5, H68A); format: biochemical
MmpL3ΔC D139A [2] = target: T2, MmpL3ΔC D139A (Mycobacterium tuberculosis, UniProt P9WJV5, D139A); format: biochemical
[3] = test system: MsmgΔmmpL3/pMVGH1-mmpL3tb (D58A); format: cell-based; settings: disc with 5 µg, 7H11-ADC agar, 4 days at 37°C
MmpL3ΔC [4] = target: T3, MmpL3ΔC (Mycobacterium tuberculosis, UniProt P9WJV5); format: biochemical
MmpL3ΔC [5] = target: T3, MmpL3ΔC; format: biochemical; remark: listed apart in the source
MmpL3ΔC S66A [6] = target: T4, MmpL3ΔC S66A (Mycobacterium tuberculosis, UniProt P9WJV5, S66A); format: biochemical
MmpL3ΔC [7] = target: T3, MmpL3ΔC; format: biochemical; remark: listed apart in the source
MmpL3ΔC D58A [8] = target: T1, MmpL3ΔC D58A; format: biochemical; remark: listed apart in the source
MmpL3ΔC S66A [9] = target: T4, MmpL3ΔC S66A; format: biochemical; remark: listed apart in the source
MmpL3ΔC D139A [10] = target: T2, MmpL3ΔC D139A; format: biochemical; remark: listed apart in the source

Q: For CC(C)=CCC/C(C)=C/CNCCNC1C2CC3CC(C2)CC1C3 (centres unmarked) [SQ109], which “Rate of fluorescence change (lipid transport activity)” value (“Rate of fluorescence change” below) (MmpL3ΔC D58A [1]) is on record?
A: 10.7 RU/s/µM protein

Q: What about the “Rate of fluorescence change” value (MmpL3ΔC H68A) of the same compound?
A: -0.12 RU/s/µM protein

Q: What about the “Rate of fluorescence change” value (MmpL3ΔC D139A [2]) of the same compound?
A: 2.52 RU/s/µM protein

Q: What about the “Susceptibility to growth inhibition (zone of inhibition) compared with cells producing WT Mtb MmpL3” value [3] of the same compound?
A: less susceptible

Q: What about the “Effect on asymmetry of NBD-PE lipid distribution in proteoliposomes (flippase activity)” value (“Effect on asymmetry” for short) (MmpL3ΔC [4]) of the same compound?
A: unaffected

Q: And the “Rate of fluorescence change” value (MmpL3ΔC [5])?
A: 2.04 RU/s/µM protein

Q: And the “Effect on remaining lipid transfer activity (in words)” value (MmpL3ΔC S66A [6])?
A: inhibited

Q: And the “Rate of fluorescence change” value (MmpL3ΔC S66A [6])?
A: -0.15 RU/s/µM protein

Q: How did the “Rate of fluorescence change” value (MmpL3ΔC D58A [1]) turn out when CCCCCCCCCCCCCCCC(=O)OC[C@H]1O[C@H](O[C@H]2O[C@H](CO)[C@@H](O)[C@H](O)[C@H]2O)[C@H](O)[C@@H](O)[C@@H]1O [Tre-C16] was run?
A: 11.53 RU/s/µM protein

Q: What about the “Rate of fluorescence change” value (MmpL3ΔC H68A) of the same compound?
A: -0.62 RU/s/µM protein

Q: What about the “Effect on H+ transfer activity (in words)” value (MmpL3ΔC [7]) of the same compound?
A: strongly stimulated

Q: And the “Effect on H+ transfer activity (in words)” value (MmpL3ΔC D58A [8])?
A: stimulated

Q: What about the “Rate of fluorescence change” value (MmpL3ΔC D139A [2]) of the same compound?
A: 13.43 RU/s/µM protein

Q: What about the “Stimulation of the variant by ligand (in words)” value (MmpL3ΔC S66A [9]) of the same compound?
A: no significant stimulation

Q: What about the “Effect on asymmetry” value (MmpL3ΔC [4]) of the same compound?
A: unaffected

Q: What about the “Rate of fluorescence change” value (MmpL3ΔC [5]) of the same compound?
A: 1.32 RU/s/µM protein

Q: And the “Effect on remaining lipid transfer activity (in words)” value (MmpL3ΔC S66A [6])?
A: inhibited

Q: What about the “Rate of fluorescence change” value (MmpL3ΔC S66A [6]) of the same compound?
A: -0.02 RU/s/µM protein

Q: What about the “Effect on H+ transfer activity (in words)” value (MmpL3ΔC D139A [10]) of the same compound?
A: stimulated by Tre-C16 even more strongly than the parent protein

Q: With OC[C@H]1O[C@H](O[C@H]2O[C@H](CO)[C@@H](O)[C@H](O)[C@H]2O)[C@H](O)[C@@H](O)[C@@H]1O [trehalose] as the compound, how does the “Rate of fluorescence change” value (MmpL3ΔC D58A [1]) read?
A: 7.22 RU/s/µM protein

Q: And the “Rate of fluorescence change” value (MmpL3ΔC H68A)?
A: 0.37 RU/s/µM protein

Q: And the “Effect on H+ transfer activity (in words)” value (MmpL3ΔC [7])?
A: weakly

Q: And the “Effect on H+ transfer activity (in words)” value (MmpL3ΔC D58A [8])?
A: weakly

Q: And the “Rate of fluorescence change” value (MmpL3ΔC D139A [2])?
A: 18.84 RU/s/µM protein

Q: And the “Stimulation of the variant by ligand (in words)” value (MmpL3ΔC S66A [9])?
A: no significant stimulation

Q: What about the “Effect on asymmetry” value (MmpL3ΔC [4]) of the same compound?
A: unaffected

Q: What about the “Rate of fluorescence change” value (MmpL3ΔC [5]) of the same compound?
A: 2.96 RU/s/µM protein

Q: What about the “Effect on remaining lipid transfer activity (in words)” value (MmpL3ΔC S66A [6]) of the same compound?
A: inhibited

Q: And the “Rate of fluorescence change” value (MmpL3ΔC S66A [6])?
A: 1.20 RU/s/µM protein
